This note sets out measurements from ChEMBL document CHEMBL1201862, “PubChem BioAssay data set” (2004).

Molecules are shown by their SMILES. The source made the active and inactive calls.

For assay [1], the target named is T1, Tyrosine-protein phosphatase non-receptor type 7 (Homo sapiens, UniProt P35236).
T1 sequence (P35236 whole entry): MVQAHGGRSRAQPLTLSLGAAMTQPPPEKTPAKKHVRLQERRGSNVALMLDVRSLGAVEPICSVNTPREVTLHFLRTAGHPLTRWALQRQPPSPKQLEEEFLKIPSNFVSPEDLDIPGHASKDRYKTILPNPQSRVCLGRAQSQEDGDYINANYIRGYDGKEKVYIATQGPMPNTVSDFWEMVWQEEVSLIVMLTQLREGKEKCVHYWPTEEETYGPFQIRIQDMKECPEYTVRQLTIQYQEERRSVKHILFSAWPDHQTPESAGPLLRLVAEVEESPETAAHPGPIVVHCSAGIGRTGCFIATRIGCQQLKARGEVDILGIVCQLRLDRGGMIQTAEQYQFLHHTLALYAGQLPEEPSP
In kind it is functional.

The next assay deals with Phospholipase A2 (Homo sapiens, UniProt P04054). The class given is functional.
Assay [2] deals with T2, Dual specificity protein phosphatase 6 (Rattus norvegicus, UniProt Q64346). In kind it is functional.
The target in assay [3] is Heat shock 70 kDa protein 1A (Homo sapiens, UniProt P0DMV8). As to the kind of experiment: Hsp70 inhibitors, SAR follow-up, biochemical, fluorescence polarization (AID 1072). A general note: Fluorescence polarisation rises when a labelled molecule tumbles more slowly, as on binding a larger partner.
The target in assay [4] is T2, Dual specificity protein phosphatase 6.
Another assay has as its target T3, Cysteine protease ATG4B (Homo sapiens, UniProt Q9Y4P1).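 Further: Fluorescence-based dose-response confirmation assay measuring inhibition of ATG4B activity.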
T3 sequence (Q9Y4P1 whole entry): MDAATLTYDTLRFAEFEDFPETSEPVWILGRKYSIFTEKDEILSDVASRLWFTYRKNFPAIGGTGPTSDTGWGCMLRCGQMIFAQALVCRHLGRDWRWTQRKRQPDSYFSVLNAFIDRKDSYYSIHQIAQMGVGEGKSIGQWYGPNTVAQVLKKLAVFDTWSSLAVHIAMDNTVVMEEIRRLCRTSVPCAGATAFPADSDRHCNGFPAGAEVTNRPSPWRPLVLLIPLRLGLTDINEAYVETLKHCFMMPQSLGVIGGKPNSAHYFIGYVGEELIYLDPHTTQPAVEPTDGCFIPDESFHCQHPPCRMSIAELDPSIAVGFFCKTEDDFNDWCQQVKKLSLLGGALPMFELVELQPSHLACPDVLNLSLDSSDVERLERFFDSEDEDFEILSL
The class given is functional.

The target of assay [5] is Heat shock cognate 71 kDa protein (Homo sapiens, UniProt P11142). The experiment in a line: In Vitro Hsc70 Dose Response Fluorescence Polarization Assay. [Related pubchem assays: 1072 ].
In a further assay the target is T4, Bcl-2-like protein 10 (Homo sapiens, UniProt Q9HD36).
T4 sequence (Q9HD36 whole entry): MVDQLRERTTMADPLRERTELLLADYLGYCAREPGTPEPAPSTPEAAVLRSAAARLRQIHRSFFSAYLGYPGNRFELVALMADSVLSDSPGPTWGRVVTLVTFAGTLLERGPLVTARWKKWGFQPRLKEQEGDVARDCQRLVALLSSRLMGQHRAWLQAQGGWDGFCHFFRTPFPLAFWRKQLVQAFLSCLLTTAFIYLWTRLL
The experiment in a line: Biochemical TR3 FP assay of Bcl-B inhibitor potency, EC50 (AID 1243). The class given is functional.

Assay [6] deals with Glyceraldehyde-3-phosphate dehydrogenase (Homo sapiens, UniProt P04406).
For assay [7], the target named is Dual specificity protein phosphatase 3 (Homo sapiens, UniProt P51452). As to the kind of experiment: VHR1 inhibitor Ki determination, SAR follow-up, biochemical, colorimetric (AID 2004).
The target in assay [8] is T5, Endoribonuclease toxin MazF (Escherichia coli K-12, UniProt P0AE70).
T5 sequence (P0AE70 whole entry): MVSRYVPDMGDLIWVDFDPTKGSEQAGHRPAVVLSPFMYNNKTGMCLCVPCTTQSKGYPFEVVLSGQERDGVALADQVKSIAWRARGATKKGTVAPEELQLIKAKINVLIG
As to the kind of experiment: MazF toxin RNase activators, dose response, biochemical, fluorescence, single-stranded RNA substrate, uHTS hits (AID 588481). The class given is functional.

For assay [9], the target named is T5, Endoribonuclease toxin MazF. As to the kind of experiment: fluorescent RNA oligo signal without MazF, dose response, counter-screen for MazEF activator project, biochemical, fluorescence, single-stranded RNase substrate (AID 588502). In kind it is functional. (In general: Counterscreens check selectivity or assay interference.)
A further assay concerns the target Keap1/Nrf2 (Homo sapiens, UniProt Q14145). As to the kind of experiment: Keap1-Nrf2 protein-protein interaction inhibitors, dose response, biochemical, fluorescence polarization, cherry-picked samples (AID 588683).
The target in assay [10] is T6, Apoptotic protease-activating factor 1 (Homo sapiens, UniProt O14727).
T6 sequence (O14727 whole entry): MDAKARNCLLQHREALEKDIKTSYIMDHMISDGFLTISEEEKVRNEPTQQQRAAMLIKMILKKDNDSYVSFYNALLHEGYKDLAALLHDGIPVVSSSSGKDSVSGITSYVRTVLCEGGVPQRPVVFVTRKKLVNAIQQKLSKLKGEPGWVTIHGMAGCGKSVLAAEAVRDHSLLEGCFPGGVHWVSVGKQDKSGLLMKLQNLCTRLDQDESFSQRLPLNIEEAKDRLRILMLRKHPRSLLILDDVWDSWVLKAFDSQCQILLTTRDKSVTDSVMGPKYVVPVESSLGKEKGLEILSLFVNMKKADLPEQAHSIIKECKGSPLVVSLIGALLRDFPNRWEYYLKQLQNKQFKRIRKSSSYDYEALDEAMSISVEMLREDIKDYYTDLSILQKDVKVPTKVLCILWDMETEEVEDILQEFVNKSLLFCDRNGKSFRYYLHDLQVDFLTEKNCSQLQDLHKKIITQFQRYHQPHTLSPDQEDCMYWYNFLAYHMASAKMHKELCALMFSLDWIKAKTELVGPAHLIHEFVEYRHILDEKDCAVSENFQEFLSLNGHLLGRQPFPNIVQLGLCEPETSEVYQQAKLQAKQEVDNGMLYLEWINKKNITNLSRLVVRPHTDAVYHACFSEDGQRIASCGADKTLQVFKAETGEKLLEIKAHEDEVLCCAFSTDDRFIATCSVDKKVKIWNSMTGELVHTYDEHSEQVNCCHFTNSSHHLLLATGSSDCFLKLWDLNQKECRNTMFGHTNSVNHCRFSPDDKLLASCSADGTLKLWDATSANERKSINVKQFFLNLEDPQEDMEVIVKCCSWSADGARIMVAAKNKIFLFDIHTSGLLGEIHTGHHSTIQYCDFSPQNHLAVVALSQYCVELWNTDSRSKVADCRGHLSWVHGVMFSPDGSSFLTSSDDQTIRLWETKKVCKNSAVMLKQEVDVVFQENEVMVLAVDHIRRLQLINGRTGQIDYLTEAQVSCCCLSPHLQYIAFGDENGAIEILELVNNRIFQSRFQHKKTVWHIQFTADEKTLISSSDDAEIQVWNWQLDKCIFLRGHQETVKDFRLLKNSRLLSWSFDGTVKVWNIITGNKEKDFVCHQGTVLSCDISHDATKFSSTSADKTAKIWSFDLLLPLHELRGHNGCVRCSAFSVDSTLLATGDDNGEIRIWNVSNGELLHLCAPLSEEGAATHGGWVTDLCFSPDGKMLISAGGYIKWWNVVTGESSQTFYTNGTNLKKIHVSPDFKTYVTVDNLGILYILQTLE
The experiment in a line: activation of Apaf-1 mediated apoptosis – fluorescent, uHTS hits, dose response (AID 588554). In kind it is functional.

For assay [11], the target named is T7, Small ubiquitin-related modifier 1 (Homo sapiens, UniProt P63165). The experiment in a line: inhibitors of SUMO1 peptide binding, dose response, biochemical, fluorescence polarization, uHTS hits (AID 624382). The class given is functional. Particulars: read-out: IC50_Mean.
Assay [12] addresses T8, Eukaryotic translation initiation factor 4H (Homo sapiens, UniProt Q15056). The experiment in a line: eIF4H inhibition in translation initiation, SAR follow-up (AID 435011). The class given is functional.
In assay [13] the target is T7, Small ubiquitin-related modifier 1. As to the kind of experiment: inhibitors of SUMO1 partner interactions, dose response, biochemical, FRET (AID 624383). The class given is functional. The conditions noted are these: read-out: IC50_Mean.
Assay [14] addresses T9, Polyadenylate-binding protein 1 (Homo sapiens, UniProt P11940). The experiment in a line: PABP inhibition in translation initiation, SAR follow-up (AID 435018). The class given is functional.
Assay [15] concerns the target T8, Eukaryotic translation initiation factor 4H. As to the kind of experiment: human eIF4H binding inhibitors, primary screen, translation initiation inhibitor project, biochemical, uHTS, fluorescence polarization (AID 2012).
For assay [16], the target named is T9, Polyadenylate-binding protein 1. As to the kind of experiment: PABP poly(A) RNA binding inhibitors, primary screen, biochemical, fluorescence polarization, uHTS (AID 2014).
The target in assay [17] is UDP-galactopyranose mutase (Mycobacterium tuberculosis, UniProt P9WIQ1). As to the kind of experiment: Inhibitors of Mycobacterium tuberculosis UDP-galactopyranose mutase (UGM) enzyme Measured in Biochemical System Using Plate Reader - 2105-02_Inhibitor_Dose_CherryPick_Activity. [Related pubchem assays (depositor defined):AID504439].
Another assay concerns Candida albicans. The experiment in a line: growth inhibition of resistant C. albicans, dose response, CaCi-8, fluconazole, Alamar Blue, dry powder (AID 488807). The class given is functional, organism-based. For orientation: Alamar Blue is a resazurin reagent that responds to reducing activity.
The nature of assay [18]: Luminescence Cell-Based Dose Retest to Confirm Inhibitors of Cancer Stem Cells. [Related pubchem assays (depositor defined):AID2717, AID2721]. In kind it is functional. Particulars: Homo sapiens.
Assay [19] is described as follows: A Cell Based Secondary Assay To Explore Cytotoxicity of Compounds that Sensitize Mycobacterium Tuberculosis to Beta-Lactam Antibiotics. In kind it is functional.
Assay [20] is described as follows: inhibitors of firefly luciferase expression or activity, dose response, H4 neuroglioma cells, luminescence (AID 1990). The class given is functional, cell-based.
The next assay addresses T10, Estrogen receptor (Homo sapiens, UniProt P03372).
T10 sequence (P03372 whole entry): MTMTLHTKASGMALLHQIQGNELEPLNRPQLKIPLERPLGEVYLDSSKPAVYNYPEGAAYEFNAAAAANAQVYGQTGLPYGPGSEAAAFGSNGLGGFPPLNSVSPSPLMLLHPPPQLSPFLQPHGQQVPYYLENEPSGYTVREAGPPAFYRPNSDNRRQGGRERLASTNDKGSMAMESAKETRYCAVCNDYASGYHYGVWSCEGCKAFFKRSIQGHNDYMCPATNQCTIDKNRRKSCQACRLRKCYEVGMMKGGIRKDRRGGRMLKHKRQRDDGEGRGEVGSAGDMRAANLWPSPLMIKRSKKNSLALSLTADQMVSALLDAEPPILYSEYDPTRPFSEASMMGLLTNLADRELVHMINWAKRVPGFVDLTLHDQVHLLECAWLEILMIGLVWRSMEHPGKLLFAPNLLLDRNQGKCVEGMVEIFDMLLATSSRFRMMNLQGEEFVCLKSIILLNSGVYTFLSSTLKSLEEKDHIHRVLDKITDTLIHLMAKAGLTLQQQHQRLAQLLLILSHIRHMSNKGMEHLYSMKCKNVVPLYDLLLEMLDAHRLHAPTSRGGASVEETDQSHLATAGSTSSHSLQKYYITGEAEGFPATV

Assay [21] in a line: inhibitors of SNCA 5'UTR-driven reporter translation, confirmation, H4 neuroglioma cells, luminescence (AID 1988). In kind it is functional, cell-based.
Assay [22] can be described thus: Luminescence Cell-Based Dose Response HTS to Identify Inhibitors of 5'UTR Stem-Loop Driven Prion Protein mRNA Translation in H4 Neuroglioblastoma Cells. [Related pubchem assays: 1827 (Project Summary), 1813 (Primary HTS)]. In kind it is functional.
Assay [23] can be described thus: cytotoxicity in HMLE control line with eGFP shRNA, dose response, counter-screen for HMLE_sh_ECad selective toxicity project, cell-based, HMLE_sh_eGFP, luminescence (AID 463074).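 Further: HMLE human mammary epithelial cells expressing control shRNA against eGFP.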 In kind it is functional, Homo sapiens.

As usually defined, the EC50 is the concentration giving half of the maximal effect. In general, Ki refers to a measure of affinity in units of concentration, obtained from inhibition or displacement. By AC50 is commonly meant the concentration giving half of the maximal activity seen. A word on the CC50: it is the concentration that lowers cell viability or growth by half.

T7 sequence (P63165 whole entry): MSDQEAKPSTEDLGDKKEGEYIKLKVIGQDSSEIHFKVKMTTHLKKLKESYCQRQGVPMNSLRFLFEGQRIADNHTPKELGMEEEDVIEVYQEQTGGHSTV
T2 sequence (Q64346 whole entry): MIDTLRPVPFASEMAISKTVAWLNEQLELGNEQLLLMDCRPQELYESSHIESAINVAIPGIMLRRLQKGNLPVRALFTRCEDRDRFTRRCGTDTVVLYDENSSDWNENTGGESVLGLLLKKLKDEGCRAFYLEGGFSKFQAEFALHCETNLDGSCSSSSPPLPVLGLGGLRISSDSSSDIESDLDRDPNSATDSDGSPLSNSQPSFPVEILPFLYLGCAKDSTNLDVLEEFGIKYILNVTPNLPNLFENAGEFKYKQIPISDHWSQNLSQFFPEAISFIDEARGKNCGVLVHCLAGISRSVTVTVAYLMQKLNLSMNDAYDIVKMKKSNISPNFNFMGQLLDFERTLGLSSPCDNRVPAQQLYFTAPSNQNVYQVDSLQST
T9 sequence (P11940 whole entry): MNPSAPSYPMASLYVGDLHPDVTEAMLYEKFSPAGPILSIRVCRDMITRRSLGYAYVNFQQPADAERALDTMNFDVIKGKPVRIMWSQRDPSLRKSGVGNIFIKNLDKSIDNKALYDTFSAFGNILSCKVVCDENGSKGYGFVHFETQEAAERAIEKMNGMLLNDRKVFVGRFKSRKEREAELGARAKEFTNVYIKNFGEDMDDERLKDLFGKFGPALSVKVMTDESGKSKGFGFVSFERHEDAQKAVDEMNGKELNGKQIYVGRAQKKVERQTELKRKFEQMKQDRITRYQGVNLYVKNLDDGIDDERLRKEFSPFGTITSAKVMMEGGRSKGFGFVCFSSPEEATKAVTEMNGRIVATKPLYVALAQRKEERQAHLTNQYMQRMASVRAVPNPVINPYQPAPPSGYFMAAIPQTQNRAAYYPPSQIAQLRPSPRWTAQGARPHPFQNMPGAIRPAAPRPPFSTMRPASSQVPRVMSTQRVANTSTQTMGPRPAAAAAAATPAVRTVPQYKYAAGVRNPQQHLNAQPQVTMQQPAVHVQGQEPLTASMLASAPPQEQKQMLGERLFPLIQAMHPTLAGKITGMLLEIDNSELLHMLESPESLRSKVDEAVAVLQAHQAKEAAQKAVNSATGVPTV
Dual specificity protein phosphatase 3, sequence (P51452 whole entry): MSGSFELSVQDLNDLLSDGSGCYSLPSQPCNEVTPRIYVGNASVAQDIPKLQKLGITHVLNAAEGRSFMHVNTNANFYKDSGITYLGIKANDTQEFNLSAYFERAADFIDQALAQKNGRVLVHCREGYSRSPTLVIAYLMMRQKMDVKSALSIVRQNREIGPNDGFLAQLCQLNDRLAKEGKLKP
Keap1/Nrf2, sequence (Q16236 whole entry): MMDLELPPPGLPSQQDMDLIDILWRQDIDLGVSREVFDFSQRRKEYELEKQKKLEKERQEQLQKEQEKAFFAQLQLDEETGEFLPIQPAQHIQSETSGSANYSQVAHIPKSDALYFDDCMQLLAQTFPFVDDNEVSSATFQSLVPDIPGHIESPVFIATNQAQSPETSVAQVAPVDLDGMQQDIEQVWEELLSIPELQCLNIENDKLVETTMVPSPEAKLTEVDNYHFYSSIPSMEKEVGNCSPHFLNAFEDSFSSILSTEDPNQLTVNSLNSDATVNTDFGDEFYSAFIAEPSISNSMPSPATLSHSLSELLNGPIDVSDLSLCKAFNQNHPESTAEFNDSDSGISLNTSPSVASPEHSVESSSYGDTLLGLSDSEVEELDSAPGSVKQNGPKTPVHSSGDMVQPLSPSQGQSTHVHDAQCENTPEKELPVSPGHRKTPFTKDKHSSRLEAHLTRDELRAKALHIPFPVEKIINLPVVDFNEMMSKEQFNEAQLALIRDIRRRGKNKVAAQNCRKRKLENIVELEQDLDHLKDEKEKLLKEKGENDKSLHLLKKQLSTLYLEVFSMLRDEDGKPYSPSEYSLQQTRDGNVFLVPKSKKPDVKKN
Keap1/Nrf2, sequence (Q14145 whole entry): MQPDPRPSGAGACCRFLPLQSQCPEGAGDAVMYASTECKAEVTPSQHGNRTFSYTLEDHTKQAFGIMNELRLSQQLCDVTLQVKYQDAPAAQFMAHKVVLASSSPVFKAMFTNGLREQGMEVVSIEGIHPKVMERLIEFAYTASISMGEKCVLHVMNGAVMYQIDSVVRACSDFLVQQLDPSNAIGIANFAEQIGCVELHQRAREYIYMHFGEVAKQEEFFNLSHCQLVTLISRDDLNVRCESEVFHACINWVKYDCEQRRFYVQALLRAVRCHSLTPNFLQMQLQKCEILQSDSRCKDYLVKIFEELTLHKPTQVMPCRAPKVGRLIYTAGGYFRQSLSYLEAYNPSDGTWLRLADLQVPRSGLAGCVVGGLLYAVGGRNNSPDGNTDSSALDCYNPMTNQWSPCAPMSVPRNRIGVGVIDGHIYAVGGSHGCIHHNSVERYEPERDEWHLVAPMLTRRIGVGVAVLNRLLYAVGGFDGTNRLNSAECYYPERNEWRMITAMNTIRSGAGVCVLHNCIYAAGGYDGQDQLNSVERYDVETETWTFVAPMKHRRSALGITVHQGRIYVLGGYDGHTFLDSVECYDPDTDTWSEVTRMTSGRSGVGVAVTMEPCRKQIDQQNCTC
Heat shock 70 kDa protein 1A, sequence (P0DMV8 whole entry): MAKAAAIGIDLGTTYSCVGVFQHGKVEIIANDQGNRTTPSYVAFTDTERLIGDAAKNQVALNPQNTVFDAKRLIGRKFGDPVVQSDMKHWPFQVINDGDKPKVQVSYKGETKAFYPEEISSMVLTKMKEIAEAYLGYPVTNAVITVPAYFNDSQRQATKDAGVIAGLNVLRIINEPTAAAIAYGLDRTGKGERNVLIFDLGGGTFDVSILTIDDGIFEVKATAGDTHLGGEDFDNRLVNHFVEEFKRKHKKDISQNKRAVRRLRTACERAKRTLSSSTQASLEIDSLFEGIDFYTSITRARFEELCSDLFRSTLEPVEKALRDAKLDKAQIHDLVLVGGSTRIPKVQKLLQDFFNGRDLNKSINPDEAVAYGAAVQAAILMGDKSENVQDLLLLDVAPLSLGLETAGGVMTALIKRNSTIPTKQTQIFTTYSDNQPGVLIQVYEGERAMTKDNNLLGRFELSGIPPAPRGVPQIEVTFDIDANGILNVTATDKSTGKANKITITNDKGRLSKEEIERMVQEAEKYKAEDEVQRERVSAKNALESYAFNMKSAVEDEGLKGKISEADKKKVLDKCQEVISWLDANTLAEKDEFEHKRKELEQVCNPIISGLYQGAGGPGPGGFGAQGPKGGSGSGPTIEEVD
UDP-galactopyranose mutase, sequence (P9WIQ1 whole entry): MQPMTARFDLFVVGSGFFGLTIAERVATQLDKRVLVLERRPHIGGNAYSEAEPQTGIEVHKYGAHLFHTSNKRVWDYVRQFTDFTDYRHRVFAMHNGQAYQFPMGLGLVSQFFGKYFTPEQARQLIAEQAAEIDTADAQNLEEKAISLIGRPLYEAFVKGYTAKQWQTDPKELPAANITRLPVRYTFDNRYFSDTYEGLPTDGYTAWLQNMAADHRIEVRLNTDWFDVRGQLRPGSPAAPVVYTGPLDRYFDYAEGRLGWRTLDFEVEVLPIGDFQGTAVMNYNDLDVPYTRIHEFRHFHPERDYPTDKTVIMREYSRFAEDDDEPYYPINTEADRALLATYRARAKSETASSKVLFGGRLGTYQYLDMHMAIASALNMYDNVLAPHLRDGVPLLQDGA
Phospholipase A2, sequence (P04054 whole entry): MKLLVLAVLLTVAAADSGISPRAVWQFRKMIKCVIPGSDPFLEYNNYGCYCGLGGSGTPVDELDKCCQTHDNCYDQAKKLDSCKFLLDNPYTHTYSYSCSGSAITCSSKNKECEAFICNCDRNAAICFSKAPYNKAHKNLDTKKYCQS
Glyceraldehyde-3-phosphate dehydrogenase, sequence (P04406 whole entry): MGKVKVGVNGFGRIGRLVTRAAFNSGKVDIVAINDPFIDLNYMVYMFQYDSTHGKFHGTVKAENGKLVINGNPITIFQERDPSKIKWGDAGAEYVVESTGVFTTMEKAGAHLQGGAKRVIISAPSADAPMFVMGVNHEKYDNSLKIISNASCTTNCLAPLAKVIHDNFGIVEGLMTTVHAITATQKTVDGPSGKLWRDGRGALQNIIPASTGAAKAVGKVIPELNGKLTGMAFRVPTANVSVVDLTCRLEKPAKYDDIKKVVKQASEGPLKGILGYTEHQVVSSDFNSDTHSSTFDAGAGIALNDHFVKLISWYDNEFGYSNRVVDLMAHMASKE

For the molecule `O=C(O)C1Nc2c(Cl)cc(Cl)cc2C2C=CCC12` (centres undefined), the IC50 was 12.9 µM (active) in assay [1]; 9.08 µM (active) on Phospholipase A2; 53 µM (active) in [2]; > 100 µM (not active) in [3]; 63.5 µM (active) in assay [4]; 2.58 µM (active) at Cysteine protease ATG4B. For the same molecule, the IC50 in assay [5] and in [6] was > 100 µM (not active) each time. At Bcl-2-like protein 10, the EC50 is 1.03 µM (active). Besides, in [7], the Ki is 65.6 µM (inactive).
For the molecule `O=C(C1=C(O)C(=O)N(c2nccs2)C1c1ccccc1)c1cc2ccccc2o1` (centres undefined), the EC50 in assay [8] and in [9] was > 99 µM (inactive) in each case. For the same molecule, the AC50 on Keap1/Nrf2 was 1.15 µM (active).
In the case of `COc1cc([N+](=O)[O-])ccc1NC(=O)COC(=O)c1ccc(NC(N)=O)cc1`, the EC50 in assay [10] was 10.4 µM (active). The IC50 was > 66.6 µM (inactive) in [11]; 4.62 µM (active) in assay [12]; 10.2 µM (active) in [13]; 76.2 µM (active) in [14]; 14.6 µM (active) in assay [15]; > 100 µM (inactive) in assay [16].
In the case of `O=C(NCCc1ccc(F)cc1)c1cccc2c1C(=O)c1ccc(N3CCC(Cc4ccccc4)CC3)cc1S2(=O)=O`, the AC50 in assay [17] is 47.8 µM (active).
As to `Oc1c2nc3ccccc3c-2nc2n1CCS2`, the AC50 in the assay with Candida albicans is 17.1 µM (active).
Regarding `Cc1nc2ccccc2c(=O)n1/N=C/c1c(O)ccc2oc3c(c12)CCCC3`, the figures for the AC50 in assay [18] and in [23] were 30 µM (active) and 32.8 µM (active), respectively. In addition, the CC50 in assay [19] is 4.26 µM (active). The EC50 is 11.1 µM (active) in assay [20], 9.98 µM (active) in assay [21] and 11.7 µM (active) in assay [22]. In addition, at Estrogen receptor, the IC50 is 29.2 µM (active).
